Laboratory results reported in ChEMBL document CHEMBL1148381, “Application of CoMFA and CoMSIA 3D-QSAR and docking studies in optimization of mercaptobenzenesulfonamides as HIV-1 integrase inhibitors” (J Med Chem, 2004).

Assays:
[1] = biological target: T1, Human immunodeficiency virus type 1 integrase (Human immunodeficiency virus 1, UniProt Q7ZJM1); experiment: Inhibitory activity against 3' processing by HIV integrase
[2] = biological target: T1, Human immunodeficiency virus type 1 integrase; experiment: Inhibitory activity against DNA strand transfer by HIV integrase

T1 sequence (Q7ZJM1 whole entry): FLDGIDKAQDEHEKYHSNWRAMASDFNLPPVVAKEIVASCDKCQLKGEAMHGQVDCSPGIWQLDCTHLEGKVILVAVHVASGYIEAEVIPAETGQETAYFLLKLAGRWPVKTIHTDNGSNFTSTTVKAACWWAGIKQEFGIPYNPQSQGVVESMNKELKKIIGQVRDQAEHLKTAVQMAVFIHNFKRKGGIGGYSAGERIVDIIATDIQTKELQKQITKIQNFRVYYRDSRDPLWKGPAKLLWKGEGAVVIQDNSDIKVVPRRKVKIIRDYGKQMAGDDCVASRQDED

Cc1cc(S(=O)(=O)NC2=NCCCN2)c(S)cc1Cl
IC50 [1]: 148 µM | IC50 [2]: 145 µM

Cc1cc(S(=O)(=O)Nc2nnc3c(Cl)cc(C(F)(F)F)cn23)c(S)cc1Cl
IC50 [1]: 17.8 µM | IC50 [2]: 20.9 µM

Cc1cc2c(cc1Cl)SC(C1C(=O)NC(=S)NC1=O)NS2(=O)=O (centres undefined)
IC50 [1]: 60.3 µM | IC50 [2]: 50.1 µM

O=S(=O)(Nc1nnc2n1-c1ccccc1CC2)c1ccc(Cl)cc1S
IC50 [1]: 21.9 µM | IC50 [2]: 19.5 µM

CCCn1cnnc1NS(=O)(=O)c1cc(C(=O)Nc2ccc(C)cc2)c(Cl)cc1S
IC50 [1]: 40.7 µM | IC50 [2]: 39.8 µM

Cc1ccc(-n2cnnc2NS(=O)(=O)c2cc(C(=O)Nc3ccc(Cl)cc3)c(Cl)cc2S)cc1
IC50 [1]: 3.98 µM | IC50 [2]: 3.98 µM

Cc1cc(S(=O)(=O)Nc2n[nH]c(-c3ccc(Cl)cn3)n2)c(S)cc1Cl
IC50 [1]: 8.91 µM | IC50 [2]: 10.2 µM

O=S(=O)(Nc1nnc2c3ccccc3cnn12)c1ccc(Cl)cc1S
IC50 [1]: 28.8 µM | IC50 [2]: 38.9 µM

Cc1cc(S(=O)(=O)Nc2nnc3c4scc(C)c4ncn23)c(S)cc1Cl
IC50 [1]: 9.33 µM | IC50 [2]: 7.41 µM

CCCn1cnnc1NS(=O)(=O)c1cc(C(=O)Nc2ccc(C)cc2)c(Cl)cc1SCC(=O)O
IC50 [1]: 43.7 µM | IC50 [2]: 43.7 µM

CC(=O)Oc1cc(S(=O)(=O)Nc2nnc(Nc3ccc(C)cc3)[nH]2)c(S)cc1Cl
IC50 [1]: 7.59 µM | IC50 [2]: 10 µM

CC(C)Cn1cnnc1NS(=O)(=O)c1cc(C(=O)Nc2ccc(Cl)cc2)c(Cl)cc1S
IC50 [1]: 38 µM | IC50 [2]: 39.8 µM

O=S(=O)(Nc1ccccn1)c1ccc(/N=N/c2cnc(O)c(O)c2)cc1
IC50 [1]: 60.3 µM | IC50 [2]: 58.9 µM

Cc1cc(S(=O)(=O)Nc2nnc(Nc3ccccc3)[nH]2)c(S)cc1Cl
IC50 [1]: 16.2 µM | IC50 [2]: 12.6 µM

Cc1cc2c(cc1Cl)SC(C(C#N)C#N)NS2(=O)=O (centres undefined)
IC50 [1]: 708 µM | IC50 [2]: 603 µM

Cc1cc(S(=O)(=O)Nc2nc(Nc3ccccc3)nn2C)c(S)cc1Cl
IC50 [1]: 27.5 µM | IC50 [2]: 15.8 µM

Cc1cc(S(=O)(=O)Nc2nc(N)n(-c3ccccn3)n2)c(S)cc1Cl
IC50 [1]: 14.5 µM | IC50 [2]: 22.9 µM

Cc1cc(S(=O)(=O)NC(=NN)NNc2cccc(C(F)(F)F)n2)c(S)cc1Cl
IC50 [1]: 87.1 µM | IC50 [2]: 100 µM

Cc1ccc(NC(=O)c2cc(S(=O)(=O)Nc3nncn3Cc3ccccc3)c(S)cc2Cl)cc1
IC50 [1]: 8.91 µM | IC50 [2]: 7.94 µM

Cc1cc(S(=O)(=O)Nc2nnc3c4c(C)csc4ncn23)c(S)cc1Cl
IC50 [1]: 3.63 µM | IC50 [2]: 3.47 µM

Cc1cc(S(=O)(=O)NC(=NN)Nc2ccc(Cl)cc2)c(S)cc1Cl
IC50 [1]: 3.55 µM | IC50 [2]: 3.55 µM

CCCCn1cnnc1NS(=O)(=O)c1cc(C(=O)NCc2ccccc2)c(Cl)cc1S
IC50 [1]: 89.1 µM | IC50 [2]: 70.8 µM

Cc1ccc(NC(=O)c2cc(S(=O)(=O)Nc3nncn3CC(C)C)c(S)cc2Cl)cc1
IC50 [1]: 75.9 µM | IC50 [2]: 100 µM

Cc1cc(S(=O)(=O)Nc2nnc3c(C(F)(F)F)cc(Cl)cn23)c(S)cc1Cl
IC50 [1]: 10.7 µM | IC50 [2]: 24 µM

Cc1ccc(Nc2nc(NS(=O)(=O)c3cc(C)c(Cl)cc3S)n(C)n2)cc1
IC50 [1]: 23.4 µM | IC50 [2]: 19.1 µM

O=C(Nc1ccc(F)cc1)c1cc(S(=O)(=O)Nc2nncn2-c2ccc(F)cc2)c(S)cc1Cl
IC50 [1]: 79.4 µM | IC50 [2]: 37.2 µM

Cc1ccc(-n2cnnc2NS(=O)(=O)c2cc(C(=O)Nc3ccccc3)c(Cl)cc2S)cc1
IC50 [1]: 6.03 µM | IC50 [2]: 10 µM

NS(=O)(=O)c1ccc(/N=N/C2Sc3nc4ccccc4n3C2=O)cc1 (centres undefined)
IC50 [1]: 209 µM | IC50 [2]: 126 µM

Cc1cc(S(=O)(=O)Nc2nc(N)nc(N(C)C)n2)c(S)cc1Cl
IC50 [1]: 77.6 µM | IC50 [2]: 41.7 µM

Cc1cc2nc3nc(N)nc(NS(=O)(=O)c4cc(C)c(Cl)cc4S)n3c2cc1C
IC50 [1]: 5.5 µM | IC50 [2]: 4.27 µM

Cc1cc(S(=O)(=O)Nc2nnc3ccc4ccccc4n23)c(S)cc1Cl
IC50 [1]: 12.9 µM | IC50 [2]: 7.41 µM

Cc1cc(S(=O)(=O)Nc2nc3ccccc3nc2-c2ccc(Cl)cc2)c(S)cc1Cl
IC50 [1]: 20 µM | IC50 [2]: 12 µM

COc1cccc(Nc2n[nH]c(NS(=O)(=O)c3cc(C)c(Cl)cc3S)n2)c1
IC50 [1]: 6.31 µM | IC50 [2]: 20.9 µM

Cc1cc(S(=O)(=O)Nc2nnc3c4ccccc4ccn23)c(S)cc1Cl
IC50 [1]: 13.2 µM | IC50 [2]: 10.7 µM

O=C1NC(=S)SC1NS(=O)(=O)c1ccc(-c2ncccn2)cc1 (centres undefined)
IC50 [1]: 28.8 µM | IC50 [2]: 14.1 µM

Cc1ccnc(NS(=O)(=O)c2ccc(/N=N/c3cc4ccccc4c(C(=O)O)c3O)cc2)n1
IC50 [1]: 19.5 µM | IC50 [2]: 32.4 µM

CC1=NN(c2ccccc2)C(=O)C1/N=N/c1ccc(S(=O)(=O)Nc2scc(C)c2C)cc1 (centres undefined)
IC50 [1]: 129 µM | IC50 [2]: 107 µM

Cc1cc(S(=O)(=O)Nc2nnc3ccccn23)c(S)cc1Cl
IC50 [1]: 123 µM | IC50 [2]: 110 µM

Cc1cc2c(cc1Cl)SC(C(C#N)C(=O)c1ccccc1)NS2(=O)=O (centres undefined)
IC50 [1]: 200 µM | IC50 [2]: 112 µM

CCN(c1ccccc1)c1nc(N)nc(NS(=O)(=O)c2cc(C)c(Cl)cc2S)n1
IC50 [1]: 17.4 µM | IC50 [2]: 24.5 µM

COc1ccc(Nc2n[nH]c(NS(=O)(=O)c3cc(C)c(Cl)cc3S)n2)cc1
IC50 [1]: 15.5 µM | IC50 [2]: 14.1 µM

O=C(Nc1ccc(Cl)cc1)c1cc(S(=O)(=O)Nc2nncn2-c2ccc(F)cc2)c(S)cc1Cl
IC50 [1]: 37.2 µM | IC50 [2]: 37.2 µM

CC1N=NC(c2ccc(S(=O)(=O)NC3SC(=S)NC3=O)cc2)S1 (centres undefined)
IC50 [1]: 24 µM | IC50 [2]: 19.1 µM

Cc1cc(S(=O)(=O)Nc2nc3ccccc3[nH]2)c(S)cc1Cl
IC50 [1]: 38.9 µM | IC50 [2]: 43.7 µM

Cc1ccc(Nc2n[nH]c(NS(=O)(=O)c3cc(C)c(Cl)cc3S)n2)cc1
IC50 [1]: 22.4 µM | IC50 [2]: 24 µM

CCC(C)n1cnnc1NS(=O)(=O)c1cc(C(=O)Nc2ccc(C)cc2)c(Cl)cc1S (centres undefined)
IC50 [1]: 200 µM | IC50 [2]: 112 µM

CCCCn1cnnc1NS(=O)(=O)c1cc(C(N)=O)c(Cl)cc1SCC(=O)O
IC50 [1]: 417 µM | IC50 [2]: 417 µM

Cc1cc(S(=O)(=O)Nc2nc3ccccc3nc2-c2ccc(Br)cc2)c(S)cc1Cl
IC50 [1]: 12.3 µM | IC50 [2]: 7.94 µM

Cc1cc(C(F)(F)F)cc(-n2nc(NS(=O)(=O)c3cc(C)c(Cl)cc3S)nc2N)n1
IC50 [1]: 9.33 µM | IC50 [2]: 6.31 µM

CC(=O)C(/N=N/c1ccc(S(=O)(=O)Nc2ccccn2)cc1)C(=O)Nc1ccccc1C (centres undefined)
IC50 [1]: 66.1 µM | IC50 [2]: 72.4 µM

O=S(=O)(Nc1nnc2c3ccccc3ccn12)c1ccc(F)cc1S
IC50 [1]: 51.3 µM | IC50 [2]: 47.9 µM

CCOC(=O)C(C#N)C1NS(=O)(=O)c2cc(C)c(Cl)cc2S1 (centres undefined)
IC50 [1]: 331 µM | IC50 [2]: 112 µM

Cc1cc(S(=O)(=O)Nc2nc(N)n(-c3ccccc3)n2)c(S)cc1Cl
IC50 [1]: 10.7 µM | IC50 [2]: 13.2 µM

CC1=NNC(=O)C1/N=N/c1ccc(S(=O)(=O)Nc2nccs2)cc1 (centres undefined)
IC50 [1]: 70.8 µM | IC50 [2]: 61.7 µM

Cc1cc(S(=O)(=O)Nc2nnc3cnc4ccccc4n23)c(S)cc1Cl
IC50 [1]: 31.6 µM | IC50 [2]: 8.32 µM

O=C(CC(Sc1[nH]cnc2ncnc1-2)Sc1[nH]cnc2ncnc1-2)Nc1ccc(S(=O)(=O)Nc2ccc(/N=N/c3ccccc3)cc2)cc1
IC50 [1]: 141 µM | IC50 [2]: 112 µM

CCCCn1cnnc1NS(=O)(=O)c1cc(C(=O)Nc2ccc(C)cc2)c(Cl)cc1S
IC50 [1]: 60.3 µM | IC50 [2]: 33.9 µM

Cc1cc(S(=O)(=O)Nc2nc(N)nc3nc4ccccc4n23)c(S)cc1Cl
IC50 [1]: 9.77 µM | IC50 [2]: 7.76 µM

Cc1cc(S(=O)(=O)Nc2nnc3cc(C(F)(F)F)cc(C)n23)c(S)cc1Cl
IC50 [1]: 18.6 µM | IC50 [2]: 11 µM

O=C(Nc1ccccc1)c1cc(S(=O)(=O)Nc2nncn2-c2ccc(F)cc2)c(S)cc1Cl
IC50 [1]: 45.7 µM | IC50 [2]: 50.1 µM

Cc1cc(S(=O)(=O)Nc2nc(Nc3ccc(Cl)cc3)nn2C)c(S)cc1Cl
IC50 [1]: 16.2 µM | IC50 [2]: 17.8 µM

COC(=O)CSc1cc(Cl)c(C)cc1S(=O)(=O)Nc1nnc(N)[nH]1
IC50 [1]: 200 µM

O=C(O)c1cc2ccccc2c(/N=N/c2ccc(S(=O)(=O)Nc3nccs3)cc2)c1O
IC50 [1]: 21.4 µM | IC50 [2]: 42.7 µM

Cc1cc2c(cc1Cl)SC(C1C(=O)NC(=O)NC1=O)NS2(=O)=O (centres undefined)
IC50 [1]: 60.3 µM | IC50 [2]: 60.3 µM

CCCCn1cnnc1NS(=O)(=O)c1cc(C(=O)Nc2ccc(Cl)cc2)c(Cl)cc1S
IC50 [1]: 36.3 µM | IC50 [2]: 43.7 µM

O=S(=O)(Nc1nccs1)c1ccc(/N=N/c2cnc(O)c(O)c2)cc1
IC50 [1]: 22.9 µM | IC50 [2]: 20.9 µM

COc1cc(Nc2nnc(NS(=O)(=O)c3cc(C)c(Cl)cc3S)[nH]2)cc(OC)c1OC
IC50 [1]: 15.5 µM | IC50 [2]: 16.6 µM

Cc1cc(S(=O)(=O)Nc2nc3ccccc3nc2-c2cccc([N+](=O)[O-])c2)c(S)cc1Cl
IC50 [1]: 15.1 µM | IC50 [2]: 7.94 µM

Cc1cnc(NS(=O)(=O)c2ccc(/N=N/c3cc4ccccc4cc3O)cc2)s1
IC50 [1]: 38.9 µM | IC50 [2]: 50.1 µM

O=C(Nc1ccccc1)c1cc(S(=O)(=O)Nc2nncn2-c2ccc(Cl)cc2)c(S)cc1Cl
IC50 [1]: 6.03 µM | IC50 [2]: 12 µM
